We go through 1 molecule from PMC4569013, “Massive Bioaccumulation and Self‐Assembly of Phenazine Compounds in Live Cells” (Advanced Science, 2015).

Details of data set [1]: method as in PMID 21800872. The settings on record: DMEM with 5% FBS; cited from earlier work.
A short description of data set [2]: Solubility measurements in cell culture media (DMEM) with or without FBS. In kind it is physicochemical. Conditions: at the concentrations added to the cells. The protocol: Solubility Measurements: Solutions containing the phenazine derivatives were made in cell culture media (DMEM) with or without FBS (10%). After a 24 h incubation, the solutions were centrifuged (10 000 × g, 10 min), the supernatant was removed and the precipitate was dissolved in 9 M H2SO4. The supernatant was diluted with 10 M NaOH to precipitate the remaining solubilized compound. The diluted supernatant was centrifuged (10 000 × g, 10 min) followed by dissolution of the precipitate in 9 M H2SO4. Both fractions were spectrophotometrically measured with a Biotek microplate spectrophotometer (λ = 540 nm) and phenazine content was determined using calibrated clofazimine standards.

Data set [3] has as its system RAW264.7 macrophages. As to the kind of experiment: Cell accumulation experiment, transmitted light microscopy of cellular staining pattern. In kind it is cell-based. As for the experimental part:
Cell Accumulation Experiments and Transmitted Light Microscopic Examination: […] After a 24 h incubation (37 °C, 5% CO2), cells were incubated with solution of clofazmine or its chemical derivatives (300 μL of 5 × 10^−6 m concentration; measured cell viability ranging from 85% to 97% for all compounds tested at this concentration; Figure 1) in DMEM (no phenol red; plus 1 × 10^−3 M sodium pyruvate and 5% FBS). For Compound “I,” 2.5 × 10^−6 M of compound solution in media was used for the RAW 264.7 macrophages incubation because of lower cell viability at higher concentrations (IC50 = (3.95 ± 0.11) × 10^−6 M). A solution of clofazmine or other chemical derivatives was made by a diluting stock solutions (2.5 × 10^−3 M in DMSO; 10 × 10^−3 M stock in DMSO were stored at −80 °C for further use) into DMEM with 5% FBS. […] The extracellular concentration of each compound in each well was maintained by daily replacement of the compound‐containing media. After 72 h of incubation with clofazmine or its derivatives, compound‐containing media were removed and cells were washed twice with media. Live cells in the chambered glasses were examined under inverted transmitted light microscopy (Nikon Eclipse Ti microscope) with a 40× objective and color camera. As a control experiment, fixed cells were also microscopically examined after incubation with the compounds. Cells were seeded on the chambered cover glasses at the density of 1.5 × 10^4 cells cm^−2 (RAW264.7 macrophages) or 2.5 × 10^4 cells cm^−2 (MDCK epithelial cells). After an overnight incubation (37 °C, 5% CO2), media was removed from the wells and cold methanol (−20 °C) was added to each well. After 30 s, remaining methanol was removed by washing with media with 5% FBS. Fixed cells were incubated (37 °C, 5% CO2) with clofazmine or derivatives (300 μL of 5 × 10^−6 M; 2.5 × 10^−6 M for I) in media with 5% FBS. After 72 h, fixed RAW264.7 or MDCK cells were washed with media and examined using the same transmitted microscopy conditions as the live cells.

Turning to `CC(C)/N=c1\cc2n(-c3ccc(Cl)cc3)c3ccccc3nc-2cc1Nc1ccc(Cl)cc1` [Clofazimine, clofazimine, reference compound], in data set [1], the “Precipitate formation in media” value is given as “did not form visible precipitates”. Moreover, the “Solubility in serum containing media” value in data set [2] is “stably solubilized”. For the same molecule, in data set [3] (inferred from staining pattern after 72 hour incubation), the Inferred uptake result was “Moderate”. Moreover, the “Observed cellular staining pattern (Notes)” value in data set [3] (live cells, 72 hour incubation, 5 × 10^−6 M (2.5 × 10^−6 M for I)) is listed as “Orange-brown staining pattern associated with perinuclear cytoplasmic vesicles”.
